{"source": "ChEMBL document CHEMBL1155192", "about": "“The identification of beta-hydroxy carboxylic acids as selective MMP-12 inhibitors” (Bioorg Med Chem Lett, 2009)", "key": {"Interstitial collagenase": {"target": "T1, Interstitial collagenase (Homo sapiens, UniProt P03956)", "T1 sequence (P03956 whole entry)": "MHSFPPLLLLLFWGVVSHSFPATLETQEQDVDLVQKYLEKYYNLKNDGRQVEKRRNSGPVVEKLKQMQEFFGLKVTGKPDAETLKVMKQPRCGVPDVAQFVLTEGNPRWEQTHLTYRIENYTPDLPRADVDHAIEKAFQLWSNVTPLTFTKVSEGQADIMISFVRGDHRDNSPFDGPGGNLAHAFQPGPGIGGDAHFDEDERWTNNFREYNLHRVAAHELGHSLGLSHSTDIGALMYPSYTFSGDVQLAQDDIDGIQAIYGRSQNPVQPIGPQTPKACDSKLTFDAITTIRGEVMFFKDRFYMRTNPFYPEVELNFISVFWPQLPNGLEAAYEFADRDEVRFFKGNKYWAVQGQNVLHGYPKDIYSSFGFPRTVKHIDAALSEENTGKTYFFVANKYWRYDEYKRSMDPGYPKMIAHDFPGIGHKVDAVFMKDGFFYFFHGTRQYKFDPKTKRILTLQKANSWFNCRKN", "test": "Inhibition of human recombinant MMP1"}, "Collagenase 3": {"target": "Collagenase 3 (Homo sapiens, UniProt P45452)", "test": "Inhibition of human recombinant MMP13"}, "[1]": {"target": "Macrophage metalloelastase (Homo sapiens, UniProt P39900)", "sequence (P39900 whole entry)": "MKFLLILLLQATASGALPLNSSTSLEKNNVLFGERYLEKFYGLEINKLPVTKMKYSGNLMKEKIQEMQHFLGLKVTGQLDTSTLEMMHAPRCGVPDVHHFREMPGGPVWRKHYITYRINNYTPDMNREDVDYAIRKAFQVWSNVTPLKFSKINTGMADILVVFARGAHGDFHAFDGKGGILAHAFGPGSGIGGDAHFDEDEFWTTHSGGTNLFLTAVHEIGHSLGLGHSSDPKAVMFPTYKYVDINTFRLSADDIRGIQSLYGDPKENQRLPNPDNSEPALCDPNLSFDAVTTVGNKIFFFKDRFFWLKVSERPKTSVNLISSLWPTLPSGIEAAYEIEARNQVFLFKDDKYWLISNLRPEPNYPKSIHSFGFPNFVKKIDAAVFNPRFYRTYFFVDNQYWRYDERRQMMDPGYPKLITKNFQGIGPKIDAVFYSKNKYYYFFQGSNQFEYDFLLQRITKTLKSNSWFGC", "test": "Inhibition of human recombinant MMP12"}, "[2]": {"target": "72 kDa type IV collagenase (Homo sapiens, UniProt P08253)", "sequence (P08253 whole entry)": "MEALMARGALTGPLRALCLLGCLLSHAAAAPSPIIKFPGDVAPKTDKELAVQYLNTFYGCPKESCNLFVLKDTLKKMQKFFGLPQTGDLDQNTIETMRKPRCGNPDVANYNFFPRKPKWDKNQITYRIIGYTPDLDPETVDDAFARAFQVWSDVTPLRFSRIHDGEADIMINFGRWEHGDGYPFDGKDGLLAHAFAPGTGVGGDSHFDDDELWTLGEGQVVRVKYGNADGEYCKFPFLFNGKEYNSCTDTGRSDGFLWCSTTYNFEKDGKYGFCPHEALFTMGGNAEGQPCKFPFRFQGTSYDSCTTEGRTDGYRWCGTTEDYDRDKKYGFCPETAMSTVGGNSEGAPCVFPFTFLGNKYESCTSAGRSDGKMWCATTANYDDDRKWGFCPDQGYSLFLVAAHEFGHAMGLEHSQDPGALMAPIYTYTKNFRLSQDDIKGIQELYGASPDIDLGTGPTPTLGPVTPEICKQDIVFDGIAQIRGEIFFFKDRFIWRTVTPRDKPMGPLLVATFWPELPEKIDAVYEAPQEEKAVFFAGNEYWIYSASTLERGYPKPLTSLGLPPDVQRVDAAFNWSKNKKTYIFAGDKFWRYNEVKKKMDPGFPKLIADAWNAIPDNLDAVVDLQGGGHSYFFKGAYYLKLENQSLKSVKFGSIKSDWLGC", "test": "Inhibition of human recombinant MMP2"}, "[3]": {"test": "Lipophilicity, log D at pH 7.4", "format": "physicochemical", "conditions": "buffer"}, "Matrilysin": {"target": "T2, Matrilysin (Homo sapiens, UniProt P09237)", "T2 sequence (P09237 whole entry)": "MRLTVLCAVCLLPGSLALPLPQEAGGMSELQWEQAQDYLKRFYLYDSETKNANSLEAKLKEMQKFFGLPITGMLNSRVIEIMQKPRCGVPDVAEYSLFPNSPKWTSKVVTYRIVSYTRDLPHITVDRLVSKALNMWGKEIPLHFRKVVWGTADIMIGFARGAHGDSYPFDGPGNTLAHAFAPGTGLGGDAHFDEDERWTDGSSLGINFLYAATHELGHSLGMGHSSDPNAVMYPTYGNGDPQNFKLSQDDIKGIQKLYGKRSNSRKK", "test": "Inhibition of human recombinant MMP7"}, "[4]": {"target": "Angiotensin-converting enzyme (Homo sapiens, UniProt P12821)", "sequence (P12821 whole entry)": "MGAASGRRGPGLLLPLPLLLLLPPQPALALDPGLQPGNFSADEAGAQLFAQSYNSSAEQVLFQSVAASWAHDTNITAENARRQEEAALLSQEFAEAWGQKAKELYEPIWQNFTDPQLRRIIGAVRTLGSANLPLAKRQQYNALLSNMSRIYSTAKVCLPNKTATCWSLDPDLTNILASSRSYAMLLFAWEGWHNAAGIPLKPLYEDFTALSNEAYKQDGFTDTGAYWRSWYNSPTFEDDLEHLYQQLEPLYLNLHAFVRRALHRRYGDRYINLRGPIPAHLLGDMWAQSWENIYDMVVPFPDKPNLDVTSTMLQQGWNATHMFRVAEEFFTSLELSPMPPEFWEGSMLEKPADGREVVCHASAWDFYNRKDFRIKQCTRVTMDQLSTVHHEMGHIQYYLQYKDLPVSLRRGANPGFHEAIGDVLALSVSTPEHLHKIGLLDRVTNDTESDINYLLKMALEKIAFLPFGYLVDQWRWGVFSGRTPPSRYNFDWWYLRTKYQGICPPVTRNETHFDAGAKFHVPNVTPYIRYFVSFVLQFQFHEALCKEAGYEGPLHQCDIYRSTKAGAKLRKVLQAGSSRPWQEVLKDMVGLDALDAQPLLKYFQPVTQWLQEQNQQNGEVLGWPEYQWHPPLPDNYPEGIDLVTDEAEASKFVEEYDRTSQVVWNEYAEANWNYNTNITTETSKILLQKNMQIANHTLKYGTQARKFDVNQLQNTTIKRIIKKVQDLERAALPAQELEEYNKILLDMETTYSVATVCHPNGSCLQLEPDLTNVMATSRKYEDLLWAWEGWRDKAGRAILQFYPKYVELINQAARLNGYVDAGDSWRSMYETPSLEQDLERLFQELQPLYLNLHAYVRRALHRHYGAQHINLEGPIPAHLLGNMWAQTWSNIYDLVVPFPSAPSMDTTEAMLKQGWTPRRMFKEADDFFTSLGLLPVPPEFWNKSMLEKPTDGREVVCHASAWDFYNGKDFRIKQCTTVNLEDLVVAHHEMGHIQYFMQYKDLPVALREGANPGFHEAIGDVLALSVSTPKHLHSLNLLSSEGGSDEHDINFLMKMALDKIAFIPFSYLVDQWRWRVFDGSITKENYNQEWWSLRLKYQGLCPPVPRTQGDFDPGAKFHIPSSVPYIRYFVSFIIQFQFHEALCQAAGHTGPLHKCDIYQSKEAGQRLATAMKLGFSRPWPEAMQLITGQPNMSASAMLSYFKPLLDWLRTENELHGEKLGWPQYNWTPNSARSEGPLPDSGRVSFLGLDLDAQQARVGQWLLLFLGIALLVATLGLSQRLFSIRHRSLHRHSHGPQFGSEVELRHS", "test": "Inhibition of human recombinant ACE"}, "[5]": {"target": "Matrix metalloproteinase-14 (Homo sapiens, UniProt P50281)", "test": "Inhibition of human recombinant MMP14"}, "[6]": {"test": "Solubility at pH 6.2", "format": "physicochemical", "conditions": "buffer"}, "[7]": {"test": "Lipophilicity, log D at pH 6.2", "format": "physicochemical", "conditions": "buffer"}, "[8]": {"test": "Solubility at pH 7.4", "format": "physicochemical", "conditions": "buffer"}, "[9]": {"target": "Matrix metalloproteinase-9 (Homo sapiens, UniProt P14780)", "sequence (P14780 whole entry)": "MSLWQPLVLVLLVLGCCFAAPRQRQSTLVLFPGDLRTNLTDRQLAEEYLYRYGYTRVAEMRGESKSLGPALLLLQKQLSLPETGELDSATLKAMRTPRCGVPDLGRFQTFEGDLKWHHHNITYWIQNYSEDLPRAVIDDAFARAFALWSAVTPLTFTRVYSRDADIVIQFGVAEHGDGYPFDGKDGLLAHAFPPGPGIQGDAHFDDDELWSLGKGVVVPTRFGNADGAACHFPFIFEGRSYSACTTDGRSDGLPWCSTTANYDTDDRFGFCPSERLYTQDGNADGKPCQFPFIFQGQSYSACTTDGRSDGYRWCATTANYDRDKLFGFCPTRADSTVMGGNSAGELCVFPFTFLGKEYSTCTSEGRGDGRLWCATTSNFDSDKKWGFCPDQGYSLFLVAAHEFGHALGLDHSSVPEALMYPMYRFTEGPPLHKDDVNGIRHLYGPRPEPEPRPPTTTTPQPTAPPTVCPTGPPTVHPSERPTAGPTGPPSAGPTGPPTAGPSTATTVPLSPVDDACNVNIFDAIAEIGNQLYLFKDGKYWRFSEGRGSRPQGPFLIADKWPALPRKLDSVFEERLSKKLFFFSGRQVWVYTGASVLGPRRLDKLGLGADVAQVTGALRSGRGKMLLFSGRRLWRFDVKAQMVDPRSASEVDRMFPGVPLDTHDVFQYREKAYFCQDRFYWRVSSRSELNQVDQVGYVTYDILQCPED", "test": "Inhibition of human recombinant MMP9"}, "Stromelysin-1": {"target": "Stromelysin-1 (Homo sapiens, UniProt P08254)", "sequence (P08254 whole entry)": "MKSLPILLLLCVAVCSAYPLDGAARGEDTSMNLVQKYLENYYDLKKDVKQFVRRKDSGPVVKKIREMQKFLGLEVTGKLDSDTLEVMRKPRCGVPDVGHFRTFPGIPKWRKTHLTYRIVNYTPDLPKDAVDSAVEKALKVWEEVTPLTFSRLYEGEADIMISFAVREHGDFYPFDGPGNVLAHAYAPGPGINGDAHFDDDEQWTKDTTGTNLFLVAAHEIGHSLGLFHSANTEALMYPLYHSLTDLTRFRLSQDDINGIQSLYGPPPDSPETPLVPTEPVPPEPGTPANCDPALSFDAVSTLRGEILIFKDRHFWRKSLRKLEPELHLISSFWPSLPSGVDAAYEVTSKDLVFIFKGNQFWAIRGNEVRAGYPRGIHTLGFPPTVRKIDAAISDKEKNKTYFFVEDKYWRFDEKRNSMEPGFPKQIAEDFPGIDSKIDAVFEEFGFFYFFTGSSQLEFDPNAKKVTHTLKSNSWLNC", "test": "Inhibition of human recombinant MMP3"}, "[10]": {"test": "Inhibition of guinea pig recombinant MMP12", "set-up": "species or system Cavia porcellus"}, "[11]": {"target": "Disintegrin and metalloproteinase domain-containing protein 17 (Homo sapiens, UniProt P78536)", "sequence (P78536 whole entry, the tested form may be a part)": "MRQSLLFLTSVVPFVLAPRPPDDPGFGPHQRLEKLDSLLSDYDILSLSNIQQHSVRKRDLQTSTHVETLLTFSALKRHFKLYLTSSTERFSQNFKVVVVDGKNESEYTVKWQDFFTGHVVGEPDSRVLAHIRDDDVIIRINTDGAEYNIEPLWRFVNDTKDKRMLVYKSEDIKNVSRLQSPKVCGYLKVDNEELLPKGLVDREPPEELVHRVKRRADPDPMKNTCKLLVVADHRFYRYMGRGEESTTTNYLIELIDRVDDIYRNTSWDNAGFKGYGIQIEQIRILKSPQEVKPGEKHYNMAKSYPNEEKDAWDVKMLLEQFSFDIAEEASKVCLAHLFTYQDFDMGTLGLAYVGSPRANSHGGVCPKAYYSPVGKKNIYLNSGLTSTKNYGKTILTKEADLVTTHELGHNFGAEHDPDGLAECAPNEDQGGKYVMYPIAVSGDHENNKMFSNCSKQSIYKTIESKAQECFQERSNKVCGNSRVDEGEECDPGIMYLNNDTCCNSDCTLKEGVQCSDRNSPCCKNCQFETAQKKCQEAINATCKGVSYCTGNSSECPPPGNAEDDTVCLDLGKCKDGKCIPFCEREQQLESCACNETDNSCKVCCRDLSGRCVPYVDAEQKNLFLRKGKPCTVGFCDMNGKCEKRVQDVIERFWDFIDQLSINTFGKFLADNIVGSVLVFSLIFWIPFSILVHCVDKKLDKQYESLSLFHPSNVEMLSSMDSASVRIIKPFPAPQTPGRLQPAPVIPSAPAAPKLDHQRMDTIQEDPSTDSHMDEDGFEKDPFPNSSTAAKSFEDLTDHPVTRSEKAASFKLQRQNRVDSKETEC", "test": "Inhibition of human recombinant TACE"}}}
{"smiles": "O=C(O)CS(=O)(=O)CCc1ccc(-c2ccccc2)cc1", "values": [{"measurement": "IC50", "setting": "Interstitial collagenase", "result": "> 98", "unit": "µM"}, {"measurement": "IC50", "setting": "Collagenase 3", "result": 11.3, "unit": "µM"}, {"measurement": "IC50", "setting": "[1]", "result": 2.49, "unit": "µM"}]}
{"smiles": "O=C(O)CC(O)CCc1ccc(-c2ccc(OCc3ccccc3)cc2)cc1", "note": "(stereo unspecified)", "values": [{"measurement": "IC50", "setting": "Interstitial collagenase", "result": "> 98", "unit": "µM"}, {"measurement": "IC50", "setting": "Collagenase 3", "result": "> 98", "unit": "µM"}, {"measurement": "IC50", "setting": "[1]", "result": 3.75, "unit": "µM"}]}
{"smiles": "O=C(O)C[S+]([O-])CCc1ccc(-c2ccccc2)cc1", "note": "(stereo unspecified)", "values": [{"measurement": "IC50", "setting": "Interstitial collagenase", "result": "> 98", "unit": "µM"}, {"measurement": "IC50", "setting": "Collagenase 3", "result": 95.9, "unit": "µM"}, {"measurement": "IC50", "setting": "[1]", "result": 4.5, "unit": "µM"}]}
{"smiles": "O=C(O)CC(=O)CCc1ccc(-c2ccccc2)cc1", "values": [{"measurement": "IC50", "setting": "Interstitial collagenase", "result": "> 98", "unit": "µM"}, {"measurement": "IC50", "setting": "Collagenase 3", "result": "> 98", "unit": "µM"}, {"measurement": "IC50", "setting": "[1]", "result": 7.84, "unit": "µM"}]}
{"smiles": "O=C(O)CSCCc1ccc(-c2ccccc2)cc1", "values": [{"measurement": "IC50", "setting": "Interstitial collagenase", "result": "> 98", "unit": "µM"}, {"measurement": "IC50", "setting": "Collagenase 3", "result": 95.2, "unit": "µM"}, {"measurement": "IC50", "setting": "[1]", "result": 11.8, "unit": "µM"}]}
{"smiles": "O=C(O)CC(O)CCc1ccc(-c2cc3ccccc3o2)cc1", "note": "(stereo unspecified)", "values": [{"measurement": "IC50", "setting": "Collagenase 3", "result": 50.2, "unit": "µM"}, {"measurement": "IC50", "setting": "[1]", "result": 0.181, "unit": "µM"}]}
{"smiles": "CC(=O)OC(CCc1ccc(-c2ccccc2)cc1)CC(=O)O", "note": "(stereo unspecified)", "values": [{"measurement": "IC50", "setting": "Interstitial collagenase", "result": "> 98", "unit": "µM"}, {"measurement": "IC50", "setting": "Collagenase 3", "result": "> 98", "unit": "µM"}, {"measurement": "IC50", "setting": "[1]", "result": 54.4, "unit": "µM"}]}
{"smiles": "N#Cc1cccc(-c2ccc(CCC(O)CC(=O)O)cc2)c1", "note": "(stereo unspecified)", "values": [{"measurement": "IC50", "setting": "Interstitial collagenase", "result": "> 98", "unit": "µM"}, {"measurement": "IC50", "setting": "Collagenase 3", "result": 52, "unit": "µM"}, {"measurement": "IC50", "setting": "[1]", "result": 3.39, "unit": "µM"}]}
{"smiles": "CSc1ccc(-c2ccc(CCC(O)CC(=O)O)cc2)cc1", "note": "(stereo unspecified)", "values": [{"measurement": "IC50", "setting": "Interstitial collagenase", "result": "> 98", "unit": "µM"}, {"measurement": "IC50", "setting": "Collagenase 3", "result": 1.13, "unit": "µM"}, {"measurement": "IC50", "setting": "[1]", "result": 0.058, "unit": "µM"}]}
{"smiles": "O=C(O)CC(O)CCc1ccc(-c2ccncc2)cc1", "note": "(stereo unspecified)", "values": [{"measurement": "IC50", "setting": "Collagenase 3", "result": 3.76, "unit": "µM"}, {"measurement": "IC50", "setting": "[1]", "result": 0.055, "unit": "µM"}]}
{"smiles": "O=C(O)CC(O)CCc1ccc(-c2ccc3c(c2)oc2ccccc23)cc1", "note": "(stereo unspecified)", "values": [{"measurement": "IC50", "setting": "Interstitial collagenase", "result": "> 98", "unit": "µM"}, {"measurement": "IC50", "setting": "Collagenase 3", "result": 33.5, "unit": "µM"}, {"measurement": "IC50", "setting": "[1]", "result": 20.1, "unit": "µM"}]}
{"smiles": "O=C(O)CC(O)CCc1ccc(-c2ccc(Oc3ccccc3)cc2)cc1", "note": "(stereo unspecified)", "values": [{"measurement": "IC50", "setting": "Interstitial collagenase", "result": "> 98", "unit": "µM"}, {"measurement": "IC50", "setting": "Collagenase 3", "result": 41.9, "unit": "µM"}, {"measurement": "IC50", "setting": "[1]", "result": 19.9, "unit": "µM"}]}
{"smiles": "N#Cc1ccc(-c2ccc(CCC(O)CC(=O)O)cc2)cc1", "note": "(stereo unspecified)", "values": [{"measurement": "IC50", "setting": "Interstitial collagenase", "result": "> 98", "unit": "µM"}, {"measurement": "IC50", "setting": "Collagenase 3", "result": 2.45, "unit": "µM"}, {"measurement": "IC50", "setting": "[1]", "result": 0.086, "unit": "µM"}]}
{"smiles": "COC(CCc1ccc(-c2ccccc2)cc1)CC(=O)O", "note": "(stereo unspecified)", "values": [{"measurement": "IC50", "setting": "Interstitial collagenase", "result": "> 98", "unit": "µM"}, {"measurement": "IC50", "setting": "Collagenase 3", "result": "> 98", "unit": "µM"}, {"measurement": "IC50", "setting": "[1]", "result": 3.53, "unit": "µM"}]}
{"smiles": "CC(=O)c1ccc(-c2ccc(CCC(O)CC(=O)O)cc2)cc1", "note": "(stereo unspecified)", "values": [{"measurement": "IC50", "setting": "Interstitial collagenase", "result": "> 98", "unit": "µM"}, {"measurement": "IC50", "setting": "Collagenase 3", "result": 0.97, "unit": "µM"}]}
{"smiles": "O=C(O)CC(O)CCc1ccc(-c2ccccc2)cc1", "note": "(racemic)", "values": [{"measurement": "IC50", "setting": "Interstitial collagenase", "result": "> 98", "unit": "µM"}, {"measurement": "IC50", "setting": "[2]", "result": 4.52, "unit": "µM"}, {"measurement": "logD", "setting": "[3]", "result": 0.55}, {"measurement": "IC50", "setting": "Matrilysin", "result": "> 98", "unit": "µM"}, {"measurement": "IC50", "setting": "[4]", "result": "> 250", "unit": "µM"}, {"measurement": "IC50", "setting": "[5]", "result": 43.5, "unit": "µM"}, {"measurement": "solubility", "setting": "[6]", "result": 0.45, "unit": "mg/mL"}, {"measurement": "logD", "setting": "[7]", "result": 1.43}, {"measurement": "IC50", "setting": "Collagenase 3", "result": 12, "unit": "µM"}, {"measurement": "solubility", "setting": "[8]", "result": 0.96, "unit": "mg/mL"}, {"measurement": "IC50", "setting": "[9]", "result": 16.5, "unit": "µM"}, {"measurement": "IC50", "setting": "Stromelysin-1", "result": "> 98", "unit": "µM"}, {"measurement": "IC50", "setting": "[10]", "result": 0.91, "unit": "µM"}, {"measurement": "IC50", "setting": "[11]", "result": "> 98", "unit": "µM"}]}
{"smiles": "O=C(O)CC(O)CCc1ccc(-c2ccccc2)cc1", "note": "(single isomer, unassigned)", "values": [{"measurement": "IC50", "setting": "Interstitial collagenase", "result": "> 98", "unit": "µM"}, {"measurement": "IC50", "setting": "Matrilysin", "result": "> 98", "unit": "µM"}, {"measurement": "IC50", "setting": "[4]", "result": "> 250", "unit": "µM"}, {"measurement": "IC50", "setting": "[5]", "result": 36.6, "unit": "µM"}, {"measurement": "IC50", "setting": "Collagenase 3", "result": 9.99, "unit": "µM"}, {"measurement": "IC50", "setting": "[1]", "result": 0.34, "unit": "µM"}, {"measurement": "IC50", "setting": "[9]", "result": 10.5, "unit": "µM"}, {"measurement": "IC50", "setting": "Stromelysin-1", "result": "> 98", "unit": "µM"}, {"measurement": "IC50", "setting": "[10]", "result": 1.14, "unit": "µM"}, {"measurement": "IC50", "setting": "[11]", "result": "> 98", "unit": "µM"}]}
{"smiles": "O=C(O)CC(O)CCc1ccc(-c2ccccc2)cc1", "note": "(stereo in doubt)", "values": [{"measurement": "IC50", "setting": "Interstitial collagenase", "result": "> 98", "unit": "µM"}, {"measurement": "IC50", "setting": "Matrilysin", "result": "> 98", "unit": "µM"}, {"measurement": "IC50", "setting": "[4]", "result": "> 250", "unit": "µM"}, {"measurement": "IC50", "setting": "[5]", "result": "> 9", "unit": "µM"}, {"measurement": "IC50", "setting": "Collagenase 3", "result": 36.8, "unit": "µM"}, {"measurement": "IC50", "setting": "[1]", "result": 0.79, "unit": "µM"}, {"measurement": "IC50", "setting": "[9]", "result": 19.1, "unit": "µM"}, {"measurement": "IC50", "setting": "Stromelysin-1", "result": "> 98", "unit": "µM"}, {"measurement": "IC50", "setting": "[10]", "result": 4.67, "unit": "µM"}, {"measurement": "IC50", "setting": "[11]", "result": "> 98", "unit": "µM"}]}
